Laboratory results published in patent US10106538B2, “Inhibitors of protein kinases” (PRINCETON DRUG DISCOVERY INC, priority 2015, dated 2018).

Tests used:
Test in all cases: Off-chip Mobility Shift Assay (MSA) kinase inhibition
Assay type in all cases: biochemical
JAK1 = target: T1, JAK1 (Homo sapiens, UniProt P23458); conditions: for inhibition at 0.1 µM: inhibitor concentration 0.1 μM
T1 construct: purchased Carna Biosciences
Summary of the method: (§1)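 Reactions containing test compound, kinase, substrate, ATP and metal ions ran for 1 or 5 hour(s) at room temperature in HEPES buffer (20 mM, pH 7.5) with 0.01% Triton X100 and 2 mM DTT. Phosphorylation was quantified by off-chip mobility shift.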

LYNa = target: T2, LYNa (Homo sapiens, UniProt P07948); conditions: for inhibition at 0.1 µM: inhibitor concentration 0.1 μM
T2 construct: purchased Carna Biosciences
Summary of the method: as §1

FGFR3 = target: T3, FGFR3 (Homo sapiens, UniProt P22607); conditions: for inhibition at 0.1 µM: inhibitor concentration 0.1 μM
T3 construct: purchased Carna Biosciences
Summary of the method: as §1

KIT(T670I) = target: T4, KIT(T670I) (Homo sapiens, UniProt P10721, T670I); conditions: for inhibition at 0.1 µM: inhibitor concentration 0.1 μM
T4 construct: purchased Carna Biosciences
T4 sequence (P10721 26-976 T670I): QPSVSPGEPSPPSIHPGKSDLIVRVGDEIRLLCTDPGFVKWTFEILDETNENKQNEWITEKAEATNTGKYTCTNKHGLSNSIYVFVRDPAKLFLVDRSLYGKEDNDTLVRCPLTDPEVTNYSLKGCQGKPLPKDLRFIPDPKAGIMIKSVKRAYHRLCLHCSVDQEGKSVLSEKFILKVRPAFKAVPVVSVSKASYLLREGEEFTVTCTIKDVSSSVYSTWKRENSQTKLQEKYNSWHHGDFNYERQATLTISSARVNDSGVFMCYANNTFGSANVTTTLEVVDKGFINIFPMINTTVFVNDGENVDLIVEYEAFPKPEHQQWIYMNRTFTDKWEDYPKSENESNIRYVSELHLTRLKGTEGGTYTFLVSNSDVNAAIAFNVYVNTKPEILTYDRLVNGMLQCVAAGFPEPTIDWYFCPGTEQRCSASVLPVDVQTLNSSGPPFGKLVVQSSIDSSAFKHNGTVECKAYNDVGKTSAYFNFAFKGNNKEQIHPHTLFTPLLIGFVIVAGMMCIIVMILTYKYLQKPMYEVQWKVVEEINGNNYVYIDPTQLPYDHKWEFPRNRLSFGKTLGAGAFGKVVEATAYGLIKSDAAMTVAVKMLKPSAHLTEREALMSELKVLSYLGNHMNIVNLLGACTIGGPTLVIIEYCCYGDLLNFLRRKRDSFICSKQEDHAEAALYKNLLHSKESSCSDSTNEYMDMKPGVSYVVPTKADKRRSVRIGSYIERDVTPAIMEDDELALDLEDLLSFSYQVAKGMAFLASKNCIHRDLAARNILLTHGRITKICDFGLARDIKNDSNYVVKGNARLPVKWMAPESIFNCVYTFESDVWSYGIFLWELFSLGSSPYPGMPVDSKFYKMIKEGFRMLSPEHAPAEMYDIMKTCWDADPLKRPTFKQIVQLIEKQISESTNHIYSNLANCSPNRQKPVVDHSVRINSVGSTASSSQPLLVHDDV
Summary of the method: as §1

PDGFRα(V561D) = target: T5, PDGFRα(V561D) (Homo sapiens, UniProt P16234, V561D)
T5 construct: purchased Carna Biosciences
Procedure: (§2) Off-chip Mobility Shift Assay (MSA) by Cama Biosciences, Inc (Natick, Mass.) a used for measuring the kinase activity and inhibition. • 1) The 5 μL of x4 compound solution, 5 μL of x4 Substrate/ATP/Metal solution, and 10 μL of x2 kinase solution were prepared with assay buffer (20 mM HEPES, 0.01% Triton X100, 2 mM DTT, pH 7.5) and mixed and incubated in a well of polypropylene 384 well microplate for 1 or 5 hour(s)* at room temperature. (*; depending on kinase) • 2) 70 μL of Termination Buffer (QuickScout Screening Assist A; Cama Biosciences) was added to the welt • 3) The reaction mixture was applied to LabChip system (Perkin Elmer), and the product and substrate peptide peaks were separated and quantitated. • 4) The kinase reaction was evaluated by the product ratio calculated from peak heights of product (P) and substrate (S) peptides (P/(P+S)). • 5) The reaction conditions were followed according to assay protocols of Ca n Biosciences, Inc (BMA 3F, 1-5-5 Minatojima-Minamimachi, Chuo-ku, Kobe 650-0047, Japan; www.carnabio.com). • 6 Data analysis: The readout value of reaction control (complete reaction mixture) was set as a 0% inhibition, and the readout value of background (Enzyme (−)) was set as a 100% inhibition, then the percent inhibition of each test solution was calculated, […]

RET(M918T) = target: T6, RET(M918T) (Homo sapiens, UniProt P07949, M918T)
T6 construct: purchased Carna Biosciences
Procedure: as §2

PDGFRα(D842V) = target: T7, PDGFRα(D842V) (Homo sapiens, UniProt P16234, D842V)
T7 construct: purchased Carna Biosciences
Procedure: as §2

RET(S891A) = target: T8, RET(S891A) (Homo sapiens, UniProt P07949, S891A)
T8 construct: purchased Carna Biosciences
Procedure: as §2

FLT1 = target: T9, FLT1 (Homo sapiens, UniProt P17948); conditions: inhibitor concentration 1 μM
T9 construct: purchased Carna Biosciences
Procedure: as §2

ACK = target: T10, ACK (Homo sapiens, UniProt Q07912)
T10 construct: purchased Carna Biosciences
Procedure: as §2

p38β = target: T11, p38β (Homo sapiens, UniProt Q15759); conditions: inhibitor concentration 1 μM
T11 construct: purchased Carna Biosciences
Procedure: as §2

PDGFRα(T674I) = target: T12, PDGFRα(T674I) (Homo sapiens, UniProt P16234, T674I)
T12 construct: purchased Carna Biosciences
Procedure: as §2

KIT(V654A) = target: T13, KIT(V654A) (Homo sapiens, UniProt P10721, V654A); conditions: inhibitor concentration 1 μM
T13 construct: purchased Carna Biosciences
T13 sequence (P10721 26-976 V654A): as the sequence (P10721 26-976 T670I) above, with V629A, I645T counted along it
Procedure: as §2

RET(Y791F) = target: T14, RET(Y791F) (Homo sapiens, UniProt P07949, Y791F)
T14 construct: purchased Carna Biosciences
Procedure: as §2

MAP2K4 = target: T15, MAP2K4 (Homo sapiens, UniProt P45985); conditions: inhibitor concentration 1 μM
T15 construct: purchased Carna Biosciences
Procedure: as §2

MAP2K5 = target: T16, MAP2K5 (Homo sapiens, UniProt Q13163); conditions: inhibitor concentration 1 μM
T16 construct: purchased Carna Biosciences
Procedure: as §2

ROCK1 = target: T17, ROCK1 (Homo sapiens, UniProt Q13464); conditions: inhibitor concentration 1 μM
T17 construct: purchased Carna Biosciences
Procedure: as §2

FYN(isoform a) = target: T18, FYN(isoform a) (Homo sapiens, UniProt P06241)
T18 construct: purchased Carna Biosciences
T18 sequence (P06241 whole entry, canonical isoform): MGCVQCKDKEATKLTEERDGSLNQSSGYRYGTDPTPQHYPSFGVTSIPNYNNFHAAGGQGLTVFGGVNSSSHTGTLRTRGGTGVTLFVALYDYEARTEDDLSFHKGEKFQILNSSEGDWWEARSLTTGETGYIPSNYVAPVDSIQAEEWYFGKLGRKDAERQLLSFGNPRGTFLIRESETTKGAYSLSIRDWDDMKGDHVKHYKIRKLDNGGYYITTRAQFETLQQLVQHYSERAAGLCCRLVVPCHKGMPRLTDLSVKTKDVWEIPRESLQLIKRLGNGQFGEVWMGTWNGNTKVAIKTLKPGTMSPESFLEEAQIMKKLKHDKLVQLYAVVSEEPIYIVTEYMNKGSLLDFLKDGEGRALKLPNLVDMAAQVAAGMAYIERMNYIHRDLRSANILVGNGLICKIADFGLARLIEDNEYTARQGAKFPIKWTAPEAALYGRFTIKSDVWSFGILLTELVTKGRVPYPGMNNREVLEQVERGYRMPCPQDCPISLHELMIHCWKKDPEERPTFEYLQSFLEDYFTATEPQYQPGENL
Procedure: as §2

YES = target: T19, YES (Homo sapiens, UniProt P07947)
T19 construct: purchased Carna Biosciences
T19 sequence (P07947 whole entry): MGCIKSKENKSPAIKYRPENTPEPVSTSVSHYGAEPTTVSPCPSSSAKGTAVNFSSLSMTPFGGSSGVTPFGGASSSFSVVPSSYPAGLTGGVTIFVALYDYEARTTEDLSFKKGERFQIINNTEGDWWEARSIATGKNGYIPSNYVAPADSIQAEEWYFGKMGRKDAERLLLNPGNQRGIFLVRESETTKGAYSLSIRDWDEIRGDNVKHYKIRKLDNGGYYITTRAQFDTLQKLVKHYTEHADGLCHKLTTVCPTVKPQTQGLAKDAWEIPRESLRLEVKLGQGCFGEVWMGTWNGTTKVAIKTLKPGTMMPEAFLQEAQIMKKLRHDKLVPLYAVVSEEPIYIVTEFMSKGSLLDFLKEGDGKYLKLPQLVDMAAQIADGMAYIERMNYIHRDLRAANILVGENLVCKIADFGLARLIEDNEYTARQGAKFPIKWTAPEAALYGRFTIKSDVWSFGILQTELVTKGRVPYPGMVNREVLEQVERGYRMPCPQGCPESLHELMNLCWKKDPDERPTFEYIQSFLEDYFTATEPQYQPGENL
Procedure: as §2

MLK1 = target: T20, MLK1 (Homo sapiens, UniProt P80192); conditions: inhibitor concentration 0.1 μM
T20 construct: purchased Carna Biosciences
T20 sequence (P80192 whole entry): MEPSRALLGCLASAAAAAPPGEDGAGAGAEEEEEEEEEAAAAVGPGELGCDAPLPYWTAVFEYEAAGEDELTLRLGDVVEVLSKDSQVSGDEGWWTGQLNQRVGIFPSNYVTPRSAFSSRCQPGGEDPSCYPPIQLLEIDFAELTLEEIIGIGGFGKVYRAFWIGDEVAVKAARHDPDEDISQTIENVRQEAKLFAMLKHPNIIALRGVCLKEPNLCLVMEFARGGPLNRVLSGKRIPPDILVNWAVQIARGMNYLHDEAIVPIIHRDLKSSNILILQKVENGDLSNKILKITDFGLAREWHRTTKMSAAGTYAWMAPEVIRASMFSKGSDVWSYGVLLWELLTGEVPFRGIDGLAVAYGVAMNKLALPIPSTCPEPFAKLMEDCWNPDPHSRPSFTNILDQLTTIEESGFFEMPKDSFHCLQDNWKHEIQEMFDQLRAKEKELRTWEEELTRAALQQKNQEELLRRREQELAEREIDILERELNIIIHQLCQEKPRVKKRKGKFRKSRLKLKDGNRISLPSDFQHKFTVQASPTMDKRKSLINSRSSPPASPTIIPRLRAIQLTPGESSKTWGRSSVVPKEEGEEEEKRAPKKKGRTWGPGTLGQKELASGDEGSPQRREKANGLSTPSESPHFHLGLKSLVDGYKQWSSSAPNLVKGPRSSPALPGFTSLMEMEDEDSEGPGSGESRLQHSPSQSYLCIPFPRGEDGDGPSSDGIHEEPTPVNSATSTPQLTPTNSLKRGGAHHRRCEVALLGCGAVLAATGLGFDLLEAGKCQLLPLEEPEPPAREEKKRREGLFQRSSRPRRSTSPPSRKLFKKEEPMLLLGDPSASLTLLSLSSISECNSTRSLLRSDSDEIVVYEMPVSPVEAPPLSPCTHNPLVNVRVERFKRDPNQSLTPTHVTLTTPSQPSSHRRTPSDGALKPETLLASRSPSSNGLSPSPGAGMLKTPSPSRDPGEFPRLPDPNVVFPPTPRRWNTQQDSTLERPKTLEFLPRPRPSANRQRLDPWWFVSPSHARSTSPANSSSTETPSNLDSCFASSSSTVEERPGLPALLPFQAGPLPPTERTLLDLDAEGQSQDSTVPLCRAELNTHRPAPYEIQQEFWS
Summary of the method: as §1

MAPKAPK2 = target: T21, MAPKAPK2 (Homo sapiens, UniProt P49137); conditions: inhibitor concentration 0.1 μM
T21 construct: purchased Carna Biosciences
T21 sequence (P49137 whole entry): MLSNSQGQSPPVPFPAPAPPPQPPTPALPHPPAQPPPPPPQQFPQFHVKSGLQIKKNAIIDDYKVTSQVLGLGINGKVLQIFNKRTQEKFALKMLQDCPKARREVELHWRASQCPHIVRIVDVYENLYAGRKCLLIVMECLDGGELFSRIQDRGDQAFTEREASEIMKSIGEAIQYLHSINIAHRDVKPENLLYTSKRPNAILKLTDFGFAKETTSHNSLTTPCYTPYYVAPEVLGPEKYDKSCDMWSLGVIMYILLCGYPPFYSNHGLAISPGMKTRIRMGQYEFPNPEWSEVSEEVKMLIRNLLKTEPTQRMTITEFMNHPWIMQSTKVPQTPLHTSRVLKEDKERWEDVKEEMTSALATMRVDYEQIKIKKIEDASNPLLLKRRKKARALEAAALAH
Summary of the method: as §1

AKT3 = target: T22, AKT3 (Homo sapiens, UniProt Q9Y243); conditions: inhibitor concentration 0.1 μM
T22 construct: purchased Carna Biosciences
T22 sequence (Q9Y243 whole entry): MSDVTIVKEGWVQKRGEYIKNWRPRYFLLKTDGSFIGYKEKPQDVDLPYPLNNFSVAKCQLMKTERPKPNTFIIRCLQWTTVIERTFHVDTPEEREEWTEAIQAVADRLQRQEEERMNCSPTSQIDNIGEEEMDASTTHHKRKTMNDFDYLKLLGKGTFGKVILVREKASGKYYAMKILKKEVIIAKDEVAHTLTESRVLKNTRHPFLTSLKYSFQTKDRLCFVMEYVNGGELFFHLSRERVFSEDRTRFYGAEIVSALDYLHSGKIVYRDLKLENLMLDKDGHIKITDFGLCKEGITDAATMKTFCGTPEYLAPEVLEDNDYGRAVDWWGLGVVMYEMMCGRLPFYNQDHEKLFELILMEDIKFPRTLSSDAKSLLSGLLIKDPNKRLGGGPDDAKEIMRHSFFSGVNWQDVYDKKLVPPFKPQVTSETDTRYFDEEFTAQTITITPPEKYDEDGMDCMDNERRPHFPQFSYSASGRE
Summary of the method: as §1

AKT2 = target: T23, AKT2 (Homo sapiens, UniProt P31751); conditions: inhibitor concentration 0.1 μM
T23 construct: purchased Carna Biosciences
T23 sequence (P31751 whole entry): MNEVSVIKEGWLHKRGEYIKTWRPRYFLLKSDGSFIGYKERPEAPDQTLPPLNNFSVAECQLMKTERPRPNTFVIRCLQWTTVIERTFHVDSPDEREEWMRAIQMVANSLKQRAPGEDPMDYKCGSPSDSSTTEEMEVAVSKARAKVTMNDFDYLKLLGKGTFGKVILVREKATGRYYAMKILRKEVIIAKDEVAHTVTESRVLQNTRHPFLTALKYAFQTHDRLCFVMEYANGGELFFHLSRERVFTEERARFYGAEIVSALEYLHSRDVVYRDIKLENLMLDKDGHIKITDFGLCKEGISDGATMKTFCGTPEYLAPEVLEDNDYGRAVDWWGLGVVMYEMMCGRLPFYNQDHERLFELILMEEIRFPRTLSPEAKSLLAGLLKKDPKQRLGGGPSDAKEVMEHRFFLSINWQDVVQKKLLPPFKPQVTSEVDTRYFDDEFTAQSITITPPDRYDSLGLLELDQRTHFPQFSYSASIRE
Summary of the method: as §1

PKACα = target: T24, PKACα (Homo sapiens, UniProt P17612); conditions: inhibitor concentration 0.1 μM
T24 construct: purchased Carna Biosciences, Inc
Summary of the method: as §1

AKT1 = target: T25, AKT1 (Homo sapiens, UniProt P31749); conditions: inhibitor concentration 0.1 μM
T25 construct: purchased Carna Biosciences
T25 sequence (P31749 whole entry): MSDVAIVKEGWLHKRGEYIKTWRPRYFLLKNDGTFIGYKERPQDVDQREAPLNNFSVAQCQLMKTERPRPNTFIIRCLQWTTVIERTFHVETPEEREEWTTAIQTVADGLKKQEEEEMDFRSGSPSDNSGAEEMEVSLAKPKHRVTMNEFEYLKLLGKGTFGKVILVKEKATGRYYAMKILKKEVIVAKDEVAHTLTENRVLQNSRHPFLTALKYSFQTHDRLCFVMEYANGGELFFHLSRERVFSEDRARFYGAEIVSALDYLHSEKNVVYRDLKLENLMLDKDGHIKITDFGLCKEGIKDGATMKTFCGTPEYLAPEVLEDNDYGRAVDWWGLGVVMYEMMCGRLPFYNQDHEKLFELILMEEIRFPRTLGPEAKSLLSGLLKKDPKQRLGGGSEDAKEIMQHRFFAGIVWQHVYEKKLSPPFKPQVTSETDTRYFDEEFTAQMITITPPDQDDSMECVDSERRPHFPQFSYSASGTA
Summary of the method: as §1

AurB = target: T26, AurB (Homo sapiens, UniProt Q96GD4); conditions: inhibitor concentration 0.1 μM
T26 construct: purchased Carna Biosciences, Inc
Summary of the method: as §1

[1] = inhibitor concentration 0.01 μM
[2] = inhibitor concentration 0.01 μM, 0.01 µM

O=C(c1c(F)ccc(NS(=O)(=O)CCCO)c1F)c1c[nH]c2ncc(-c3ccc(Cl)cc3)cc12 [200-17, N-[3-[5-(4-chlorophenyl)-1H-pyrrolo[2,3-b]pyridine-3-carbonyl]-2,4-difluorophenyl]-3-hydroxypropane-1-sulfonamide]
> 50%: inhibition at 0.1 µM (JAK1) | inhibition at 1 µM (JAK1; inhibitor concentration 1 μM) | inhibition at 0.1 µM (LYNa) | inhibition at 1 µM (LYNa; inhibitor concentration 1 μM) | inhibition at 1 µM (FGFR3; inhibitor concentration 1 μM) | inhibition at 0.1 µM (PDGFRα(V561D); inhibitor concentration 0.1 μM) | inhibition at 1 µM (PDGFRα(V561D); inhibitor concentration 1 μM) | inhibition at 1 µM (RET(M918T); inhibitor concentration 1 μM) | inhibition at 1 µM (PDGFRα(D842V); inhibitor concentration 1 μM) | inhibition at 0.1 µM (RET(S891A); inhibitor concentration 0.1 μM) | inhibition at 1 µM (RET(S891A); inhibitor concentration 1 μM) | inhibition at 1 µM (FLT1) | inhibition at 1 µM (ACK; inhibitor concentration 1 μM) | inhibition at 1 µM (p38β) | inhibition at 1 µM (KIT(V654A)) | inhibition at 1 µM (RET(Y791F); inhibitor concentration 1 μM) | inhibition at 1 µM (MAP2K5) | inhibition at 1 µM (FYN(isoform a); inhibitor concentration 1 μM) | inhibition at 0.1 µM (YES; inhibitor concentration 0.1 μM) | inhibition at 1 µM (YES; inhibitor concentration 1 μM)
> 30%: inhibition at 0.01 µM (JAK1; [1])
< 30%: inhibition at 0.01 µM (LYNa; [1]) | inhibition at 0.01 µM (PDGFRα(V561D); [1]) | inhibition at 0.01 µM (RET(M918T); [1]) | inhibition at 0.01 µM (RET(S891A); [1]) | inhibition at 0.01 µM (ACK; [1]) | inhibition at 0.01 µM (RET(Y791F); [1]) | inhibition at 0.01 µM (FYN(isoform a); [1]) | inhibition at 0.01 µM (YES; [1])
< 50%: inhibition at 1 µM (KIT(T670I); inhibitor concentration 1 μM) | inhibition at 0.1 µM (RET(M918T); inhibitor concentration 0.1 μM) | inhibition at 0.1 µM (ACK; inhibitor concentration 0.1 μM) | inhibition at 1 µM (PDGFRα(T674I); inhibitor concentration 1 μM) | inhibition at 0.1 µM (RET(Y791F); inhibitor concentration 0.1 μM) | inhibition at 1 µM (MAP2K4) | inhibition at 1 µM (ROCK1) | inhibition at 0.1 µM (FYN(isoform a); inhibitor concentration 0.1 μM)

CC(=O)CS(=O)(=O)Nc1ccc(F)c(C(=O)c2c[nH]c3ncc(-c4ccc(Cl)cc4)cc23)c1F [200-117]
< 30%: inhibition at 0.1 µM (MLK1) | inhibition at 0.1 µM (MAPKAPK2) | inhibition at 0.1 µM (JAK1) | inhibition at 0.1 µM (AKT3) | inhibition at 0.1 µM (FGFR3) | inhibition at 0.1 µM (AKT2) | inhibition at 0.1 µM (KIT(T670I)) | inhibition at 0.1 µM (PKACα) | inhibition at 0.1 µM (AKT1) | inhibition at 0.1 µM (AurB)
> 30%: inhibition at 0.1 µM (LYNa)

CC(O)CS(=O)(=O)Nc1ccc(F)c(C(=O)c2c[nH]c3ncc(-c4ccc(Cl)cc4)cc23)c1F (stereo not drawn) [200-115]
< 30%: inhibition at 0.1 µM (MLK1) | inhibition at 0.1 µM (MAPKAPK2) | inhibition at 0.1 µM (JAK1) | inhibition at 0.1 µM (AKT3) | inhibition at 0.1 µM (LYNa) | inhibition at 0.1 µM (FGFR3) | inhibition at 0.1 µM (AKT2) | inhibition at 0.1 µM (KIT(T670I)) | inhibition at 0.1 µM (PKACα) | inhibition at 0.1 µM (AKT1) | inhibition at 0.1 µM (AurB)

O=C(c1c(F)ccc(NS(=O)(=O)CC(O)CO)c1F)c1c[nH]c2ncc(-c3ccc(Cl)cc3)cc12 (stereo not drawn) [200-73, N-[3-[5-(4-chlorophenyl)-lH-pyrrolo [2,3-b]pyridine-3-carbonyl]-2,4-difluorophenyl]-2,3-dihydroxypropane-l-sulfonamide]
< 30%: inhibition at 0.1 µM (MLK1) | inhibition at 0.1 µM (MAPKAPK2) | inhibition at 0.1 µM (AKT3) | inhibition at 0.1 µM (LYNa) | inhibition at 0.1 µM (FGFR3) | inhibition at 0.1 µM (AKT2) | inhibition at 0.1 µM (KIT(T670I)) | inhibition at 0.1 µM (PKACα) | inhibition at 0.1 µM (AKT1) | inhibition at 0.1 µM (AurB)
> 30%: inhibition at 0.1 µM (JAK1)

C/C=C/S(=O)(=O)Nc1ccc(F)c(C(=O)c2c[nH]c3ncc(-c4ccc(Cl)cc4)cc23)c1F [200-93b]
<20%: JAK1 inhibition (JAK1; [2]) | KIT(T670I) inhibition (KIT(T670I); [2]) | PDGFRα(V561D) inhibition (PDGFRα(V561D); [2]) | PDGFRα(D842V) inhibition (PDGFRα(D842V); [2]) | PDGFRα(T674I) inhibition (PDGFRα(T674I); [2])
